Test results: article PMC9380430, “Aaptamine – a dual acetyl – and butyrylcholinesterase inhibitor as potential anti-Alzheimer’s disease agent” (Pharmaceutical Biology, 2022)

Tests used:
[1] = tested on: BuChE; conditions: ref Moodie et al. [2019]; read-out: IC50 against BuChE (literature); cited from earlier work
[2] = tested on: AChE; conditions: ref Moodie et al. [2019]; read-out: IC50 against AChE (literature); cited from earlier work
[3] = tested on: nicotinic acetylcholine receptors (nAChRs); conditions: ref Kudryavtsev et al. [2014]; cited from earlier work
[4] = tested on: AlCl3-induced zebrafish AD model; test: AlCl3-induced zebrafish AD model, behaviour assay; type: in vivo; conditions: + 100 μM AlCl3, 3 d; for speed change after light stimulus: model 1.38 mm/s, control 2.56 mm/s; for movement distance during 60 min: model 4968 mm, control 9219 mm
Experimental: Briefly, the 3–6 dpf zebrafish larvae were randomly placed in a 6-well microplate at a density of 30 zebrafish per well and treated with 100 μM AlCl3 to establish the AD model. […] The control group was maintained in the reverse osmosis water with 0.5% DMSO while the model group was treated with 100 μM AlCl3 containing 0.5% DMSO. […] After 3 d, the distance and speed change after light stimulus alteration were analysed and recorded for three rhythmic light within 60 min (10 min darkness and 10 min illumination alternately) using viewpoint behaviour analyser (Zebralab V3, ViewPoint Life Sciences Co., Ltd., Lyons, France). The protocol for this study involving animals and their maintenance was approved by the Animal Care and Use Committee of Shandong Academy of Sciences (No.00612). Efficacy on motility (%)=[Dsample group−Dmodel group]/[Duntreated group−Dmodel group]×100.
D is the movement distance of zebrafish during 60 min.
Efficacy on speed change (%) = [Vsample group – Vmodel group]/[Vuntreated group – Vmodel group] × 100. V is the average velocity (mm/s) of different groups which was obtained by recording the movement distance of every min for every zebrafish during 60 min. All data are expressed as mean ± SEM and analysed by GraphPad Prism version 7.0 software (Graphpad Software Inc., La Jolla, CA). Differences between groups were examined for statistical significance using one‐way ANOVA with Tukey’s post hoc test.

[5] = target: T1, BuChE (Equus caballus, UniProt P81908); test: biochemical; conditions: substrate BTChI, 37 °C; read-out: IC50 against BuChE
T1 construct: BuChE (10 U/mg from horse serum); purchased Shanghai Yuanye Bio-Technology (Shanghai, China); host or cells: horse serum
Experimental: (§1) AChE (200 U/g from electric eel) and 5,5′-dithiobis(2-nitrobenzoic acid) (DNTB) were purchased from Macklin Inc. (Shanghai, China). BuChE (10 U/mg from horse serum), acetylthiocholine iodide (ATChI) and butyrylthiocholine iodide (BTChI) were purchased from Shanghai Yuanye Bio-Technology (Shanghai, China).
(§2) The lyophilized powder of AChE and BuChE was dissolved in protein stabilizer (0.1 g BSA dissolved in 100 mL PBS) to form the storage concentration of 10 U/mL and then diluted to the required concentrations. […] After 30 min of incubation at 37 °C, 10 μL of substrate ATChI or BTChI (10 mM) were added and incubated at 37 °C for 30 min. […] For the blank control group, the assays were carried out with wells containing all components except AChE and BuChE. […] All experiments were performed in triplicate.

[6] = target: T2, AChE (Electrophorus electricus, UniProt O42275); test: biochemical; conditions: substrate ATChI, 37 °C; read-out: IC50 against AChE
T2 construct: AChE (200 U/g from electric eel); purchased Macklin Inc. (Shanghai, China)
Experimental: as §1, §2

[7] = target: T1, BuChE; test: Kinetic study of BuChE inhibition (Lineweaver-Burk, secondary plot); type: biochemical
Experimental: (§3) To clarify the mechanism of action of aaptamine, reciprocal plots of 1/[velocity] vs. 1/[substrate] (Lineweaver-Burk plots) were constructed at different concentrations of the substrate ATChI or BTChI (0, 1.25, 2.5, 5, 10 and 25 mM) and aaptamine (0, 5, 20 and 40 μM). Meanwhile, the parallel experiment was also carried out without aaptamine. The remaining procedure was the same as that of described in cholinesterases inhibition assay. The data were plotted on a Lineweaver–Burk diagram using Microsoft Excel 2016 to reveal the mechanism of inhibition. The steady-state inhibition constant Ki (intercept on the x-axis) was determined by the secondary plot of slope vs. the concentrations of inhibitor.

[8] = tested on: nicotinic acetylcholine receptors (nAChRs); conditions: ref Kudryavtsev et al. [2014]; cited from earlier work; remark: listed apart in the source
[9] = target: T2, AChE; test: Kinetic study of AChE inhibition (Lineweaver-Burk, secondary plot); type: biochemical
Experimental: as §3

[10] = target: T2, AChE; test: Surface plasmon resonance (SPR) assay, AChE; type: binding; conditions: Biacore T100, steady-state affinity fitting; read-out: Kd (equilibrium dissociation constant) for AChE
Experimental: (§4) The experiments were carried out using Biacore T100 with the Sensor Chip CM5. The chip surface was activated following standard NHS + EDC with Biacore PBS-EP (0.02 M Phosphate buffer with 2.7 mM KCl, 0.137 M NaCl and 0.05% P20) buffer used as the running buffer. 7000 RU of untagged AChE or 6600 RU of untagged BuChE was immobilized per flow cell and 100 μg/mL AChE or 20 μg/mL BuChE was injected. The cholinesterase protein is coupled to the sensor chip CM5 by amine coupling. 1 M (pH 8.5) ethanolamine-HCl was used to seal off the active group. Aaptamine was injected into the protein channel and blank channel at the following doses: 100, 50, 25, 12.5, 6.25, 3.125 and 0.39 μM at a flow rate of 30 μL/min. The protein binding period was set to 1 min, and the dissociation period was set to 2 min. The affinity was obtained by fitting the binding data using Biacore T100 Evaluation Software version 3.0 (Chicago, USA).

[11] = target: T1, BuChE; test: Surface plasmon resonance (SPR) assay, BuChE; type: binding; conditions: Biacore T100, steady-state affinity fitting; read-out: Kd (equilibrium dissociation constant) for BuChE
Experimental: as §4

CCN(C)C(=O)Oc1cccc([C@H](C)N(C)C)c1 [rivastigmine]
IC50 [1]: […]
IC50 [2]: […]

T1 sequence (P81908 whole entry): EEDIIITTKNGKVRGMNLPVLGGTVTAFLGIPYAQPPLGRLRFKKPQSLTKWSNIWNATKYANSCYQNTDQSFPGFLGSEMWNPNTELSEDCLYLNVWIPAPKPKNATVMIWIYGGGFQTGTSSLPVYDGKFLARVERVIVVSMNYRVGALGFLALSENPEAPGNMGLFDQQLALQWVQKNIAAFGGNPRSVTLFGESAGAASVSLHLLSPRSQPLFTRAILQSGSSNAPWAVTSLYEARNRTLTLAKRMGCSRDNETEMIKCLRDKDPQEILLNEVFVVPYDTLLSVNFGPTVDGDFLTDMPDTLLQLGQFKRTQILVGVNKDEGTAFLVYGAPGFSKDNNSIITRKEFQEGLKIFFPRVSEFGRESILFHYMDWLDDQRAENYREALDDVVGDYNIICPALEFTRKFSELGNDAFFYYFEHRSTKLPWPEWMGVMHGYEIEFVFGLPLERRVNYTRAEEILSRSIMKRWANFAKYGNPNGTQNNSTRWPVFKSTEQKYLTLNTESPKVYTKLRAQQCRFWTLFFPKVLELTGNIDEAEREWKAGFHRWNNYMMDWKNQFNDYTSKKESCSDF
T2 sequence (O42275 24-633): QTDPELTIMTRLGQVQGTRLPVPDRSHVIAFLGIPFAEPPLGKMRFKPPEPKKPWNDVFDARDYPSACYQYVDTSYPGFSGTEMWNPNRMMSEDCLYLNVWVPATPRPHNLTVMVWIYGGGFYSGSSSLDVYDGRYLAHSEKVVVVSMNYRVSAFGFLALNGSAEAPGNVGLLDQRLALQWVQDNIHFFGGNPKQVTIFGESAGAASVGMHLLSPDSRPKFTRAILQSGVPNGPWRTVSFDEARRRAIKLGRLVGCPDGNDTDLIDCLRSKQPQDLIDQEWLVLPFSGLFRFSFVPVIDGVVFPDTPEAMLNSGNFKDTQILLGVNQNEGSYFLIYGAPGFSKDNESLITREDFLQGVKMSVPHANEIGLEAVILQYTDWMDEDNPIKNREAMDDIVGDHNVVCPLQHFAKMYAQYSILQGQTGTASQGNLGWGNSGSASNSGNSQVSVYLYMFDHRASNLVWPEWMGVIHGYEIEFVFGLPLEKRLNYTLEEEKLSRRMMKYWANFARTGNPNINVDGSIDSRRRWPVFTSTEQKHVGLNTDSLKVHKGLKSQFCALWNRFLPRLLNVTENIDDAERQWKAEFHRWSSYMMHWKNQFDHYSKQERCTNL

COc1cc2ccnc3c2c(c1OC)NC=C3 [aaptamine]
inhibitory effect on nAChRs of Torpedo californica [3]: weak inhibitory effect
dyskinesia recovery rate ([4]; 5 μM): 34.8%
efficacy on speed change ([4]; 5 μM): 34.7%
speed change after light stimulus ([4]; 5 μM): 1.79 mm/s
movement distance during 60 min ([4]; 5 μM): 6447 mm
dyskinesia recovery rate ([4]; 10 μM): 58.8%
efficacy on speed change ([4]; 10 μM): 58.5%
speed change after light stimulus ([4]; 10 μM): 2.07 mm/s
movement distance during 60 min ([4]; 10 μM): 7466 mm
dyskinesia recovery rate ([4]; 20 μM): 60.0%
efficacy on speed change ([4]; 20 μM): 60.2%
speed change after light stimulus ([4]; 20 μM): 2.09 mm/s
movement distance during 60 min ([4]; 20 μM): 7517 mm
IC50 [5]: 4.6 µM
IC50 [6]: 16 µM
inhibition type towards BuChE ([7]; Lineweaver-Burk plots): mixed-type inhibition
Ki ([7]; secondary plot of slope vs inhibitor concentration, substrate BTChI, read-out: steady-state inhibition constant Ki against BuChE): 6.35 ± 0.02 µM
inhibitory effect on nAChRs of humans [8]: weak inhibitory effect
inhibition type towards AChE ([9]; Lineweaver-Burk plots): mixed-type inhibition
Ki ([9]; secondary plot of slope vs inhibitor concentration, substrate ATChI, read-out: steady-state inhibition constant Ki against AChE): 6.96 ± 0.04 µM
Kd [10]: 87.6 µM
Kd [11]: 10.7 µM

COc1cc2c(cc1OC)C(=O)C(CC1CCN(Cc3ccccc3)CC1)C2 (centres unmarked) [donepezil, reference compound]
dyskinesia recovery rate ([4]; 8 μM): 63.7%
efficacy on speed change ([4]; 8.0 μM): 63.6%
speed change after light stimulus ([4]; 8.0 μM): 2.13 mm/s
movement distance during 60 min ([4]; 8 μM): 7675 mm
